Blank lines part the entries; values can stand above or below the compound they belong to.
Tested on: 422866-222-R5-J1-PDC complex spheroids viability
Assay: Anticancer human tumor 422866-222-R5-J1-PDC patient-derived pancreatic adenocarcinoma cell line growth inhibition [RAS]
Conditions: for IC50: curve of first compound; for viability, T/C: stronger effect = lower value
How it was run: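 Agents were tested in combination matrices in half-log decrements from a top concentration at or near clinical Cmax (10 microM if undetermined). Targets were multi-cell spheroids of tumour lines plus HUVEC and MSC stromal cells.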

[1] = second compound 0.0316 µM, first compound 0.0316 µM
[2] = second compound 0.0316 µM, first compound 0.1 µM
[3] = second compound 0.0316 µM, first compound 0.316 µM
[4] = second compound 0.0316 µM, first compound 1 µM
[5] = second compound 0.0316 µM, first compound 3.16 µM
[6] = second compound 0.0316 µM, first compound 10 µM
[7] = second compound 0.1 µM, first compound 0.0316 µM
[8] = second compound 0.1 µM, first compound 0.1 µM
[9] = second compound 0.1 µM, first compound 0.316 µM
[10] = second compound 0.1 µM, first compound 1 µM
[11] = second compound 0.1 µM, first compound 3.16 µM
[12] = second compound 0.1 µM, first compound 10 µM
[13] = second compound 0.316 µM, first compound 0.0316 µM
[14] = second compound 0.316 µM, first compound 0.1 µM
[15] = second compound 0.316 µM, first compound 0.316 µM
[16] = second compound 0.316 µM, first compound 1 µM
[17] = second compound 0.316 µM, first compound 3.16 µM
[18] = second compound 0.316 µM, first compound 10 µM
[19] = second compound 1 µM, first compound 0.0316 µM
[20] = second compound 1 µM, first compound 0.1 µM
[21] = second compound 1 µM, first compound 0.316 µM
[22] = second compound 1 µM, first compound 1 µM
[23] = second compound 1 µM, first compound 3.16 µM
[24] = second compound 1 µM, first compound 10 µM
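Note: spheroids exposed to compounds for 7 days.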
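Throughout, for viability, T/C: 100% = DMSO vehicle control viability.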

IC50 (second compound 0.0316 µM): 55.8 nM
IC50 (second compound 0.1 µM): < 31.6 nM
IC50 (second compound 0.316 µM): < 31.6 nM
IC50 (second compound 1 µM): < 31.6 nM
IC50 (second compound 3.16 µM): < 31.6 nM
IC50 (second compound 10 µM): < 31.6 nM
SMILES: NC1c2ccccc2OC12CCN(c1cnc3c(N4CCCc5ncccc54)n[nH]c3n1)CC2 (centres undefined) + C#Cc1c(F)ccc2cc(O)cc(-c3ncc4c(N5CC6CCC(C5)N6)nc(OCC56CCCN5CC(F)C6)nc4c3F)c12
viability, T/C [1]: 53%
viability, T/C [2]: 49.2%
viability, T/C [3]: 34.8%
viability, T/C [4]: 38.4%
viability, T/C [5]: 29.5%
viability, T/C [6]: 23.6%
viability, T/C [7]: 44%
viability, T/C [8]: 43.3%
viability, T/C [9]: 32.8%
viability, T/C [10]: 28.7%
viability, T/C [11]: 27.7%
viability, T/C [12]: 25.5%
viability, T/C [13]: 38.1%
viability, T/C [14]: 36.2%
viability, T/C [15]: 24.1%
viability, T/C [16]: 26.4%
viability, T/C [17]: 24.2%
viability, T/C [18]: 19.7%
viability, T/C [19]: 27.1%
viability, T/C [20]: 23.9%
viability, T/C [21]: 25.2%
viability, T/C [22]: 17%
viability, T/C [23]: 19.6%
viability, T/C [24]: 15%
viability, T/C (second compound 3.16 µM, first compound 0.0316 µM): 17.8%
viability, T/C (second compound 3.16 µM, first compound 0.1 µM): 19.8%
viability, T/C (second compound 3.16 µM, first compound 0.316 µM): 16.1%
viability, T/C (second compound 3.16 µM, first compound 1 µM): 17.4%
viability, T/C (second compound 3.16 µM, first compound 3.16 µM): 17.5%
viability, T/C (second compound 3.16 µM, first compound 10 µM): 14.9%
viability, T/C (second compound 10 µM, first compound 0.0316 µM): 15.7%
viability, T/C (second compound 10 µM, first compound 0.1 µM): 16.5%
viability, T/C (second compound 10 µM, first compound 0.316 µM): 14.3%
viability, T/C (second compound 10 µM, first compound 1 µM): 16.2%
viability, T/C (second compound 10 µM, first compound 3.16 µM): 15.6%
viability, T/C (second compound 10 µM, first compound 10 µM): 16.1%

IC50 (second compound 0.00316 µM): < 31.6 nM
IC50 (second compound 0.01 µM): < 31.6 nM
IC50 (second compound 0.0316 µM): < 31.6 nM
IC50 (second compound 0.1 µM): < 31.6 nM
IC50 (second compound 0.316 µM): < 31.6 nM
IC50 (second compound 1 µM): < 31.6 nM
SMILES: CCC(CC)c1cc(NC2CCC(N)C2)n2nccc2n1 (centres undefined) + C=CC(=O)N1CCN(c2nc(OCC3CCCN3C)nc3c(F)c(-c4nc(N)cc(C)c4C(F)(F)F)c(Cl)cc23)C(C)C1
viability, T/C (second compound 0.00316 µM, first compound 0.0316 µM): 25.9%
viability, T/C (second compound 0.00316 µM, first compound 0.1 µM): 36.1%
viability, T/C (second compound 0.00316 µM, first compound 0.316 µM): 32.8%
viability, T/C (second compound 0.00316 µM, first compound 1 µM): 30.5%
viability, T/C (second compound 0.00316 µM, first compound 3.16 µM): 9.42%
viability, T/C (second compound 0.00316 µM, first compound 10 µM): 32.1%
viability, T/C (second compound 0.01 µM, first compound 0.0316 µM): 36.9%
viability, T/C (second compound 0.01 µM, first compound 0.1 µM): 26.8%
viability, T/C (second compound 0.01 µM, first compound 0.316 µM): 30.6%
viability, T/C (second compound 0.01 µM, first compound 1 µM): 28.9%
viability, T/C (second compound 0.01 µM, first compound 3.16 µM): 8.11%
viability, T/C (second compound 0.01 µM, first compound 10 µM): 33.1%
viability, T/C [1]: 38.8%
viability, T/C [2]: 34.4%
viability, T/C [3]: 26.6%
viability, T/C [4]: 27.2%
viability, T/C [5]: 8.27%
viability, T/C [6]: 31.5%
viability, T/C [7]: 19.1%
viability, T/C [8]: 24.1%
viability, T/C [9]: 24.2%
viability, T/C [10]: 25.6%
viability, T/C [11]: 6.99%
viability, T/C [12]: 35.6%
viability, T/C [13]: 19.3%
viability, T/C [14]: 22.3%
viability, T/C [15]: 27.6%
viability, T/C [16]: 25.3%
viability, T/C [17]: 7.15%
viability, T/C [18]: 36.3%
viability, T/C [19]: 19.6%
viability, T/C [20]: 22.8%
viability, T/C [21]: 28.9%
viability, T/C [22]: 27.1%
viability, T/C [23]: 9.75%
viability, T/C [24]: 41.1%
